Experimental data from patent US20250000910A1, “Methods of Improving Therapeutic Efficacy of Mesenchymal Stromal Cells for Treatment of Osteoarthritis” (Georgia Tech Research Corporation, priority 2021, published 2025).
Entries after “also recorded” stand apart in the source; their conditions may differ.

Tests used:
Type in all cases: cell-based, human
p-Akt = test: hMSC intracellular signaling analysis, Akt/mTOR phosphoprotein 11-plex
Source text: Millipore Corporation) system.

[1] = test system: more therapeutic hMSCs (donors M1 and M2); test: Cytokine secretion of more therapeutic hMSCs after pharmacological intervention (Luminex 41 Plex, PLSDA); conditions: for overall paracrine (cytokine) signaling response / secretion of therapeutic related cytokines (GM-CSF, GRO, IL-4, PDGF-AA): donors M1 and M2, +IL-1β 24 hr, vs CTRL
Procedure: (§1) Loaded samples (2.03 μL) were determined to be within the linear range of detection of the […] Millipore Corporation) system. Cytokines were quantified using a bead based multiplex immunoassay, Luminex Cytokine/Chemokine 41 Plex Immunomodulatory Kit ([…] Millipore Corporation). […] PLSDA was performed in MATLAB (Mathworks) using a function written by Cleiton Nunes (Mathworks File Exchange). This approach accounts for the multivariate nature of the data without overfitting. Prior to inputting the data into the algorithm, all data was z-scored [(observed-mean)/SD]. Intracellular signaling phospho-proteins and cytokine media read outs were used as the independent variables and the different hMSC donor's treatment conditions were used as the outcome variables. LVs in a multidimensional space (dimensionality varied by number of independent input variables) were defined and the two primary LVs were used for orthogonal rotation to best separate groups in the new plane defined by LV1 and LV2 (FIGS. 5a-5c). • Statistical Analysis

[2] = test system: less therapeutic hMSCs (donors L1 and L2); test: Cytokine secretion of less therapeutic hMSCs after pharmacological intervention (Luminex 41 Plex, PLSDA); conditions: vs CTRL
Procedure: as §1

SMILES	overall paracrine (cytokine) signaling response [1]	secretion of therapeutic related cytokines (GM-CSF, GRO, IL-4, PDGF-AA) [1]	other results
CCOC(=O)C1=C(N)Oc2ccc(Cl)cc2C1C(C#N)C(=O)OCC (stereo not drawn) [SC79]	the greatest potentiation of paracrine signaling	no effect	p-Akt phospho-protein levels relative to CTRL (p-Akt; more therapeutic hMSC donor M2, combination SP600125 and SC79, +IL-1β): significantly (p<0.001) more p-Akt phospho-protein levels; also recorded: increased p-Akt signaling; secretion of nonspecific cytokines ([1]; donors M1 and M2, +IL-1β): potentiated secretion of nonspecific cytokines; shift of paracrine signaling profile (PLSDA) ([1]; donors M1 and M2, +IL-1β): clear qualitative shift in the paracrine signaling profiles
C[S+]([O-])c1ccc(-c2nc(-c3ccncc3)c(-c3ccc(F)cc3)[nH]2)cc1 (stereo not drawn) [SB203580]		reduced cytokine secretion of the therapeutic related cytokines	
NC1(c2ccc(-c3nc4ccn5c(=O)[nH]nc5c4cc3-c3ccccc3)cc2)CCC1 [MK-2206]			p-Akt phospho-protein levels relative to CTRL (p-Akt; less therapeutic hMSC donor L2, combination Metformin and MK-2206, +IL-1β): significantly (p<0.01) less p-Akt phospho-protein levels; also recorded: decreased p-Akt signaling; secretion of therapeutic related cytokines (GM-CSF, GRO, IL-4, PDGF-AA) ([2]; donors L1 and L2, +IL-1β 24 hr): no effect; secretion of nonspecific cytokines ([2]; donors L1 and L2, +IL-1β): distinct reductions in nonspecific cytokines
Cc1cc(N2CCOCC2)cc2[nH]c(-c3c(NC[C@@H](O)c4cccc(Cl)c4)cc[nH]c3=O)nc12 [BMS-536924]	reduced overall paracrine signaling response	no effect	
CO[C@H]1C[C@@H]2CC[C@@H](C)[C@@](O)(O2)C(=O)C(=O)N2CCCC[C@H]2C(=O)O[C@H]([C@H](C)C[C@@H]2CC[C@@H](O)[C@H](OC)C2)CC(=O)[C@H](C)/C=C(\C)[C@@H](O)[C@@H](OC)C(=O)[C@H](C)C[C@H](C)/C=C/C=C/C=C/1C [Rapamycin]		no effect	
